Source: ChEMBL document CHEMBL1152855, “Regioselective synthesis of dispiro[1H-indene-2,3'-pyrrolidine-2',3''-[3H]indole]-1,2''(1''H)-diones of potential anti-tumor properties” (2009)

How the values were obtained:
[1] = system: HOP-62; test: Growth inhibition of human HOP62 cells at 10 uM after 48 hrs by sulforhodamine B assay; assay type: functional; settings: HOP-62, 48 h, values are per cent of control
[2] = system: NCI-H226; test: Growth inhibition of human NCI-H226 cells at 10 uM after 48 hrs by sulforhodamine B assay; assay type: functional; settings: NCI-H226, 48 h, values are per cent of control
[3] = system: NCI-H460; test: Growth inhibition of human NCI-H460 cells at 10 uM after 48 hrs by sulforhodamine B assay; assay type: functional; settings: NCI-H460, 48 h, values are per cent of control
[4] = system: NCI-H522; test: Growth inhibition of human NCI-H522 cells at 10 uM after 48 hrs by sulforhodamine B assay; assay type: functional; settings: NCI-H522, 48 h, values are per cent of control
[5] = system: HCT-116; test: Growth inhibition of human HCT116 cells at 10 uM after 48 hrs by sulforhodamine B assay; assay type: functional; settings: HCT-116, 48 h, values are per cent of control
[6] = system: HCT-15; test: Growth inhibition of human HCT15 cells at 10 uM after 48 hrs by sulforhodamine B assay; assay type: functional; settings: HCT-15, 48 h, values are per cent of control
[7] = system: KM12; test: Growth inhibition of human KM12 cells at 10 uM after 48 hrs by sulforhodamine B assay; assay type: functional; settings: KM12, 48 h, values are per cent of control
[8] = system: SW-620; test: Growth inhibition of human SW620 cells at 10 uM after 48 hrs by sulforhodamine B assay; assay type: functional; settings: SW-620, 48 h, values are per cent of control
[9] = system: BT-549; test: Growth inhibition of human BT549 cells at 10 uM after 48 hrs by sulforhodamine B assay; assay type: functional; settings: BT-549, 48 h, values are per cent of control
[10] = system: MCF7; test: Growth inhibition of human MCF7 cells at 10 uM after 48 hrs by sulforhodamine B assay; assay type: functional; settings: MCF7, 48 h, values are per cent of control
[11] = system: MDA-MB-435; test: Growth inhibition of human MDA-MB-435 cells at 10 uM after 48 hrs by sulforhodamine B assay; assay type: functional; settings: MDA-MB-435, 48 h, values are per cent of control
[12] = system: T47D; test: Growth inhibition of human T47D cells at 10 uM after 48 hrs by sulforhodamine B assay; assay type: functional; settings: values are per cent of control
[13] = system: OVCAR-3; test: Growth inhibition of human OVCAR-3 cells at 10 uM after 48 hrs by sulforhodamine B assay; assay type: functional; settings: OVCAR-3, 48 h, values are per cent of control
[14] = system: OVCAR-4; test: Growth inhibition of human OVCAR4 cells at 10 uM after 48 hrs by sulforhodamine B assay; assay type: functional; settings: OVCAR-4, 48 h, values are per cent of control
[15] = system: OVCAR-5; test: Growth inhibition of human OVCAR5 cells at 10 uM after 48 hrs by sulforhodamine B assay; assay type: functional; settings: OVCAR-5, 48 h, values are per cent of control
[16] = system: OVCAR-8; test: Growth inhibition of human OVCAR8 cells at 10 uM after 48 hrs by sulforhodamine B assay; assay type: functional; settings: OVCAR-8, 48 h, read-out: GI
[17] = system: SK-OV-3; test: Growth inhibition of human SKOV3 cells at 10 uM after 48 hrs by sulforhodamine B assay; assay type: functional; settings: SK-OV-3, 48 h, values are per cent of control
[18] = system: CCRF-CEM; test: Growth inhibition of human CCRF-CEM cells at 10 uM after 48 hrs by sulforhodamine B assay; assay type: functional; settings: values are per cent of control
[19] = system: K562; test: Growth inhibition of human K562 cells at 10 uM after 48 hrs by sulforhodamine B assay; assay type: functional; settings: K562, 48 h, values are per cent of control
[20] = system: RPMI-8226; test: Growth inhibition of human RPMI8226 cells at 10 uM after 48 hrs by sulforhodamine B assay; assay type: functional; settings: RPMI-8226, 48 h, read-out: GI
[21] = system: SR; test: Growth inhibition of human SR cells at 10 uM after 48 hrs by sulforhodamine B assay; assay type: functional; settings: values are per cent of control
[22] = system: 786-0; test: Growth inhibition of human 786-0 cells at 10 uM after 48 hrs by sulforhodamine B assay; assay type: functional; settings: 786-0, 48 h, values are per cent of control
[23] = system: ACHN; test: Growth inhibition of human ACHN cells at 10 uM after 48 hrs by sulforhodamine B assay; assay type: functional; settings: values are per cent of control
[24] = system: CAKI-1; test: Growth inhibition of human Caki1 cells at 10 uM after 48 hrs by sulforhodamine B assay; assay type: functional; settings: CAKI-1, 48 h, values are per cent of control
[25] = system: Rattus norvegicus; test: Antiinflammatory activity against carrageenan-induced paw edema in Wister albino rat assessed as inhibition of edema at 50 mg/kg, ip administered 1 hr prior to carrageenan challenge measured after 4 hrs relative to control; assay type: functional; settings: route intraperitoneal
[26] = system: UO-31; test: Growth inhibition of human UO31 cells at 10 uM after 48 hrs by sulforhodamine B assay; assay type: functional; settings: UO-31, 48 h, values are per cent of control
[27] = system: M14; test: Growth inhibition of human M14 cells at 10 uM after 48 hrs by sulforhodamine B assay; assay type: functional; settings: M14, 48 h, values are per cent of control
[28] = system: Malme-3M; test: Growth inhibition of human MALME-3M cells at 10 uM after 48 hrs by sulforhodamine B assay; assay type: functional; settings: values are per cent of control
[29] = system: SK-MEL-28; test: Growth inhibition of human SK-MEL-28 cells at 10 uM after 48 hrs by sulforhodamine B assay; assay type: functional; settings: SK-MEL-28, 48 h, values are per cent of control
[30] = system: UACC-62; test: Growth inhibition of human UACC62 cells at 10 uM after 48 hrs by sulforhodamine B assay; assay type: functional; settings: UACC-62, 48 h, values are per cent of control
[31] = system: DU-145; test: Growth inhibition of human DU145 cells at 10 uM after 48 hrs by sulforhodamine B assay; assay type: functional; settings: DU-145, 48 h, values are per cent of control
[32] = system: PC-3; test: Growth inhibition of human PC3 cells at 10 uM after 48 hrs by sulforhodamine B assay; assay type: functional; settings: PC-3, 48 h, values are per cent of control
[33] = system: SF-268; test: Growth inhibition of human SF268 cells at 10 uM after 48 hrs by sulforhodamine B assay; assay type: functional; settings: SF-268, 48 h, values are per cent of control
[34] = system: SNB-19; test: Growth inhibition of human SNB19 cells at 10 uM after 48 hrs by sulforhodamine B assay; assay type: functional; settings: SNB-19, 48 h, values are per cent of control
[35] = system: SNB-75; test: Growth inhibition of human SNB75 cells at 10 uM after 48 hrs by sulforhodamine B assay; assay type: functional; settings: SNB-75, 48 h, values are per cent of control
[36] = system: U-251; test: Growth inhibition of human U251 cells at 10 uM after 48 hrs by sulforhodamine B assay; assay type: functional; settings: U-251, 48 h, values are per cent of control
[37] = system: Rattus norvegicus; test: Antiinflammatory activity against carrageenan-induced paw edema in Wister albino rat assessed as inhibition of edema at 50 mg/kg, ip administered 1 hr prior to carrageenan challenge measured after 3 hrs relative to control; assay type: functional; settings: route intraperitoneal
[38] = system: TK-10; test: Growth inhibition of human TK10 cells at 10 uM after 48 hrs by sulforhodamine B assay; values are per cent of control; settings: TK-10, 48 h

SMILES	growth, % of control at 10 µM [1]	growth, % of control at 10 µM [2]	growth, % of control at 10 µM [3]	growth, % of control at 10 µM [4]	growth, % of control at 10 µM [5]	growth, % of control at 10 µM [6]	growth, % of control at 10 µM [7]	growth, % of control at 10 µM [8]	growth, % of control at 10 µM [9]	growth, % of control at 10 µM [10]	growth, % of control at 10 µM [11]	growth, % of control at 10 µM [12]	growth, % of control at 10 µM [13]	growth, % of control at 10 µM [14]	growth, % of control at 10 µM [15]	inhibition of growth at 10 µM [16]	growth, % of control at 10 µM [17]	growth, % of control at 10 µM [18]	growth, % of control at 10 µM [19]	inhibition of growth at 10 µM [20]	other results
[3H]C([3H])([3H])N1C(=O)[C@@]2(c3ccccc31)N(C)C[C@@H](c1cccs1)[C@@]21Cc2ccccc2C1=O	99.9%	85.7%	107%	94.9%	108%	108%	107%	89.1%	131%	103%	111%	101%	100%	100%	102%	64%	103%	90.5%	72.5%	87.9%	growth, % of control at 10 µM [21]: 72.5%; growth, % of control at 10 µM [22]: 106%; growth, % of control at 10 µM [23]: 98.4%; growth, % of control at 10 µM [24]: 106%; inhibition in vivo at 50 mg/kg [25]: 12.9%; growth, % of control at 10 µM [26]: 93.5%; growth, % of control at 10 µM [27]: 104%; growth, % of control at 10 µM [28]: 123%; growth, % of control at 10 µM [29]: 105%; growth, % of control at 10 µM [30]: 75.3%; growth, % of control at 10 µM [31]: 121%; growth, % of control at 10 µM [32]: 70.3%; growth, % of control at 10 µM [33]: 101%; growth, % of control at 10 µM [34]: 96.2%; growth, % of control at 10 µM [35]: 79%; growth, % of control at 10 µM [36]: 102%; inhibition in vivo at 50 mg/kg [37]: 9.1%; growth, % of control at 10 µM [38]: 149%
[3H]C([3H])([3H])N1C(=O)[C@@]2(c3ccccc31)N(C)C[C@@H](c1ccc(Cl)cc1)[C@@]21Cc2ccccc2C1=O	88.1%	63.2%	67.1%	77.3%	24.3%	68.3%	68.7%	67.8%	111%	91.8%	101%	75.8%	69.3%	72.5%	95.4%	60.9%	86.6%	108%	39.5%	13.4%	growth, % of control at 10 µM [21]: 51.4%; growth, % of control at 10 µM [22]: 86.2%; growth, % of control at 10 µM [23]: 82.8%; growth, % of control at 10 µM [24]: 71.8%; inhibition in vivo at 50 mg/kg [25]: 8.5%; growth, % of control at 10 µM [26]: 66.1%; growth, % of control at 10 µM [27]: 76.6%; growth, % of control at 10 µM [28]: 102%; growth, % of control at 10 µM [29]: 90.6%; growth, % of control at 10 µM [30]: 48.4%; growth, % of control at 10 µM [31]: 91.1%; growth, % of control at 10 µM [32]: 38.3%; growth, % of control at 10 µM [33]: 81.1%; growth, % of control at 10 µM [34]: 89.9%; growth, % of control at 10 µM [35]: 75.3%; growth, % of control at 10 µM [36]: 93.1%; inhibition in vivo at 50 mg/kg [37]: 9.4%; growth, % of control at 10 µM [38]: 140%
